Experimental data published in PubChem BioAssay AID248 (DTP/NCI, 2004).
Where “and” joins values, the source holds several entries; their conditions need not be identical. Equal entries are not always repeated. Inconclusive results and toxic doses are left out. No stated cut-off is given here; in the data, active means T/C of 150% or more; inactive means T/C below 125%.

Test system: L1210 leukemia ip in BDF1 mice, survival T/C
Assay: NCI In Vivo Anticancer Drug Screen. Data for tumor model L1210 Leukemia (intraperitoneal) in B6D2F1 (BDF1) mice
Details: endpoint: mean survival time, higher = longer survival
How it was run: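 Read-out is survival time, reported as the treated-group measurement over the vehicle-control measurement.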

[1] = dose: 100.0 mg/kg/injection, schedule: Q01DX009 (ip), vehicle: Klucel (hydroxypropylcellulose) (HPC)
[2] = dose: 400.0 mg/kg/injection, schedule: Q01DX009 (ip), vehicle: Klucel (hydroxypropylcellulose) (HPC)
[3] = dose: 100.0 mg/kg/injection, schedule: Q04DX003 (ip), vehicle: Klucel (hydroxypropylcellulose) (HPC)
[4] = dose: 200.0 mg/kg/injection, schedule: Q04DX003 (ip), vehicle: Klucel (hydroxypropylcellulose) (HPC)
[5] = dose: 400.0 mg/kg/injection, schedule: Q04DX003 (ip), vehicle: Klucel (hydroxypropylcellulose) (HPC)
[6] = dose: 100.0 mg/kg/injection, schedule: Q01DX001 (ip), vehicle: saline with Tween-80
[7] = dose: 200.0 mg/kg/injection, schedule: Q01DX001 (ip), vehicle: saline with Tween-80
[8] = dose: 400.0 mg/kg/injection, schedule: Q01DX001 (ip), vehicle: saline with Tween-80
[9] = dose: 100.0 mg/kg/injection, schedule: Q04DX002 (ip), vehicle: saline
[10] = dose: 200.0 mg/kg/injection, schedule: Q04DX002 (ip), vehicle: saline
[11] = dose: 100.0 mg/kg/injection, schedule: Q01DX009 (ip), vehicle: saline
[12] = dose: 200.0 mg/kg/injection, schedule: Q01DX001 (ip), vehicle: saline
[13] = dose: 200.0 mg/kg/injection, schedule: Q01DX009 (ip), vehicle: saline
[14] = dose: 400.0 mg/kg/injection, schedule: Q01DX009 (ip), vehicle: saline
[15] = dose: 200.0 mg/kg/injection, schedule: Q01DX009 (ip), vehicle: Klucel (hydroxypropylcellulose) (HPC)
[16] = dose: 100.0 mg/kg/injection, schedule: Q01DX001 (ip), vehicle: Klucel (hydroxypropylcellulose) (HPC)
[17] = dose: 200.0 mg/kg/injection, schedule: Q01DX001 (ip), vehicle: Klucel (hydroxypropylcellulose) (HPC)

Measured: T/C

CCCC[P+](CCCC)(CCCC)CC(=O)OCC
inactive: dose: 15.0 mg/kg/injection, schedule: Q01DX001 (ip), vehicle: carboxymethylcellulose (CMC) 86 % of control | dose: 60.0 mg/kg/injection, schedule: Q01DX001 (ip), vehicle: carboxymethylcellulose (CMC) 87 % of control

CCOC(=O)CC1(C)NC(C(=O)O)C(C)(C)S1 (stereo not drawn)
inactive: [1] 97 % of control | [2] 97 % of control

NC(CCn1cnc2c(=O)[nH]cnc21)C(=O)O (stereo not drawn)
inactive: [3] 101 % of control | [4] 102 % of control | [5] 96 % of control

CC(C)N(C)/N=N/N(C)C(C)C
inactive: [6] 101 % of control | [7] 103 % of control | [8] 117 % of control

Cc1nc(N)nc(Nc2ccc(CCO)cc2)c1Br
inactive: dose: 100.0 mg/kg/injection, schedule: Q01DX Z (ip), vehicle: methylcellulose (MC) 103 % of control | dose: 200.0 mg/kg/injection, schedule: Q01DX Z (ip), vehicle: methylcellulose (MC) 98 % of control

C1=CC2(C=C1)OC21CCC2(C=CC3(C2)OC3C2CCCCC2)CC1 (stereo not drawn)
inactive: dose: 50.0 mg/kg/injection, schedule: Q01DX009 (ip), vehicle: saline with Tween-80 94 % of control | dose: 100.0 mg/kg/injection, schedule: Q01DX009 (ip), vehicle: saline with Tween-80 94 % of control

CC(C)(C)NC(=O)NN(c1ccccc1)C1CCS(=O)(=O)C1 (stereo not drawn)
inactive: [9] 108 % of control | [10] 97 % of control | dose: 400.0 mg/kg/injection, schedule: Q04DX002 (ip), vehicle: saline 97 % of control

CC(=O)NC(=O)NC(C)=O
inactive: dose: 100.0 mg/kg/injection, schedule: Q01DX001 (ip), vehicle: saline 95 % of control | [11] 100 % of control | dose: 100.0 mg/kg/injection, schedule: Q04DX003 (ip), vehicle: saline 99 % of control | [12] 94 % of control | [13] 105 % of control | dose: 200.0 mg/kg/injection, schedule: Q04DX003 (ip), vehicle: saline 97 % of control | dose: 400.0 mg/kg/injection, schedule: Q01DX001 (ip), vehicle: saline 97 % of control | [14] 95 % of control | dose: 400.0 mg/kg/injection, schedule: Q04DX003 (ip), vehicle: saline 100 % of control

CC(=O)Nc1ccc(/C=N\NC(=O)Nc2ccccc2)cc1
inactive: [1] 90 % of control | [15] 90 % of control | [2] 91 % of control

CCSC(C(O)C(O)C(O)CO)n1ccc(=O)[nH]c1=O (stereo not drawn)
inactive: dose: 100.0 mg/kg/injection, schedule: Q01DX005 (ip), vehicle: saline 97 % of control | dose: 200.0 mg/kg/injection, schedule: Q01DX005 (ip), vehicle: saline 93 % of control

O=S(=O)(Nc1ccc2ccccc2c1)c1cccc2cccnc12
inactive: [3] 98 % of control | [4] 93 % of control | [5] 95 % of control

c1ccc(N2N=NC3C4CC(C5COCC54)C32)cc1 (stereo not drawn)
inactive: [16] 97 % of control | [17] 104 % of control | [15] 121 % of control | dose: 400.0 mg/kg/injection, schedule: Q01DX001 (ip), vehicle: Klucel (hydroxypropylcellulose) (HPC) 109 % of control

O=C(O)CCC1C2CC(C1C(=O)O)C1C3CCC(C3)C21 (stereo not drawn)
inactive: [3] 100 % of control | [4] 95 % of control | [5] 95 % of control

CC1(C)CCC(C)(C)c2c1ccc(O)c2Cc1c(O)ccc2c1C(C)(C)CCC2(C)C
inactive: [3] 96 % of control | [12] 87 % of control | [4] 96 % of control | [5] 94 % of control

ClCc1ccc2c(c1)OCO2
inactive: [3] 104 % of control | [4] 101 % of control | [5] 98 % of control

CCCCC(CCCC)(C(N)=O)C(=O)OCC
inactive: [1] 105 % of control | [15] 100 % of control | [2] 94 % of control

O=C(CCl)N1CCN(C(=O)CCl)CC1
inactive: dose: 10.0 mg/kg/injection, schedule: Q01DX009 (ip), vehicle: Klucel (hydroxypropylcellulose) (HPC) 110 % of control | dose: 20.0 mg/kg/injection, schedule: Q01DX009 (ip), vehicle: Klucel (hydroxypropylcellulose) (HPC) 101 % of control | dose: 20.0 mg/kg/injection, schedule: Q04DX003 (ip), vehicle: Klucel (hydroxypropylcellulose) (HPC) 104 % of control | dose: 40.0 mg/kg/injection, schedule: Q04DX003 (ip), vehicle: Klucel (hydroxypropylcellulose) (HPC) 106 % of control

CCN(CC)CCN(C(=O)C(O)(c1ccccc1)c1ccccc1)C(C)C
inactive: [9] 101 % of control | [10] 108 % of control

C/C(=N/NC(N)=S)c1ccc[nH]1
inactive: [16] 108 % of control | [17] 93 % of control

CN1C2CCC1CNC2
inactive: [11] 101 % of control | [13] 96 % of control | [14] 90 % of control

O=c1[nH]nnc2c1nc(Cc1ccc([N+](=O)[O-])cc1)n2Cc1ccccc1
inactive: [6] 102 % of control | [7] 86 % of control | [8] 100 % of control

CCCCNC(=S)NNC(=O)c1ccncc1
inactive: dose: 100.0 mg/kg/injection, schedule: Q04DX002 (ip), vehicle: Klucel (hydroxypropylcellulose) (HPC) 107 % of control | dose: 200.0 mg/kg/injection, schedule: Q04DX002 (ip), vehicle: Klucel (hydroxypropylcellulose) (HPC) 95 % of control and 105 % of control | dose: 400.0 mg/kg/injection, schedule: Q04DX002 (ip), vehicle: Klucel (hydroxypropylcellulose) (HPC) 96 % of control and 98 % of control

C/C=C(\c1ccccc1)[N+](=O)[O-]
inactive: dose: 12.5 mg/kg/injection, schedule: Q01DX001 (ip), vehicle: acetone 100 % of control | dose: 12.5 mg/kg/injection, schedule: Q04DX003 (ip), vehicle: acetone 98 % of control | dose: 18.75 mg/kg/injection, schedule: Q01DX009 (ip), vehicle: acetone 98 % of control | dose: 25.0 mg/kg/injection, schedule: Q01DX001 (ip), vehicle: acetone 92 % of control | dose: 25.0 mg/kg/injection, schedule: Q04DX003 (ip), vehicle: acetone 98 % of control | dose: 37.5 mg/kg/injection, schedule: Q01DX009 (ip), vehicle: acetone 106 % of control | dose: 50.0 mg/kg/injection, schedule: Q01DX001 (ip), vehicle: acetone 97 % of control | dose: 50.0 mg/kg/injection, schedule: Q04DX003 (ip), vehicle: acetone 100 % of control | dose: 75.0 mg/kg/injection, schedule: Q01DX009 (ip), vehicle: acetone 88 % of control | dose: 75.0 mg/kg/injection, schedule: Q04DX003 (ip), vehicle: saline 94 % of control

Cc1cccc[n+]1C
inactive: dose: 50.0 mg/kg/injection, schedule: Q01DX001 (ip), vehicle: carboxymethylcellulose (CMC) 111 % of control | [16] 95 % of control | dose: 100.0 mg/kg/injection, schedule: Q01DX001 (ip), vehicle: carboxymethylcellulose (CMC) 92 % of control | [17] 104 % of control | dose: 200.0 mg/kg/injection, schedule: Q01DX001 (ip), vehicle: carboxymethylcellulose (CMC) 103 % of control

CC(C)=CCCNC(=O)NS(=O)(=O)c1ccc(C)cc1
inactive: [3] 99 % of control | [4] 101 % of control | [5] 97 % of control

O=C(O)c1ccc(OCCOc2ccccc2)cc1
inactive: dose: 100.0 mg/kg/injection, schedule: Q01DX009 (ip), vehicle: saline sonified 90 % of control | dose: 200.0 mg/kg/injection, schedule: Q01DX009 (ip), vehicle: saline sonified 95 % of control | dose: 200.0 mg/kg/injection, schedule: Q04DX003 (ip), vehicle: saline sonified 100 % of control | dose: 400.0 mg/kg/injection, schedule: Q01DX009 (ip), vehicle: saline sonified 93 % of control | dose: 400.0 mg/kg/injection, schedule: Q04DX003 (ip), vehicle: saline sonified 108 % of control

N#CCCNC(Cc1ccc(O)cc1)C(=O)O (stereo not drawn)
inactive: dose: 12.5 mg/kg/injection, schedule: Q04DX003 (ip), vehicle: Klucel (hydroxypropylcellulose) (HPC) 104 % of control | dose: 25.0 mg/kg/injection, schedule: Q01DX009 (ip), vehicle: Klucel (hydroxypropylcellulose) (HPC) 104 % of control | dose: 25.0 mg/kg/injection, schedule: Q04DX003 (ip), vehicle: Klucel (hydroxypropylcellulose) (HPC) 98 % of control | dose: 50.0 mg/kg/injection, schedule: Q01DX009 (ip), vehicle: Klucel (hydroxypropylcellulose) (HPC) 95 % of control | dose: 50.0 mg/kg/injection, schedule: Q04DX003 (ip), vehicle: Klucel (hydroxypropylcellulose) (HPC) 104 % of control | [1] 106 % of control | [3] 100 % of control
